Legend:
[1] = target: T1, Human recombinant SHP2 (Homo sapiens, UniProt Q06124); assay: PTP activity assay (pNPP), SHP2; format: biochemical; details: triplicate; read-out: SHP-2 IC50
T1 construct: made in house; host or cells: E. coli
T1 sequence (Q06124 1-593): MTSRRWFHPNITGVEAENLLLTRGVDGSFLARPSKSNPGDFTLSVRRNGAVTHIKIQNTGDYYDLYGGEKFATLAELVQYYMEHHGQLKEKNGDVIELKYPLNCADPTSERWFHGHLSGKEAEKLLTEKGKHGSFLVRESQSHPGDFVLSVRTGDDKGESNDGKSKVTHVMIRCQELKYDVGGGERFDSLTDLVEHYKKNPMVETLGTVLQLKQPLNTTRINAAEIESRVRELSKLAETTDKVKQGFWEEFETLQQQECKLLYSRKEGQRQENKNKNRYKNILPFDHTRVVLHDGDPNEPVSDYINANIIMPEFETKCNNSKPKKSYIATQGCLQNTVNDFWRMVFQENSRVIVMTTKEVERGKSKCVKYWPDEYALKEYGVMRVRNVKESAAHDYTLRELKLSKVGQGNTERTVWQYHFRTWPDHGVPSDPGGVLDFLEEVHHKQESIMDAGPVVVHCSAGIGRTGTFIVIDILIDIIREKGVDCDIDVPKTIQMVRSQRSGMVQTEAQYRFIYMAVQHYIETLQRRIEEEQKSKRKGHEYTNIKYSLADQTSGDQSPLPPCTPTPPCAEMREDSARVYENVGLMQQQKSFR
Description: (§1) Human recombinant PTP-MEG2, SHP2 and CDC25 were expressed in E. coli and purified by Ni-NTA affinity chromatography in our laboratory. The basic chemical reaction catalyzed by a phosphatase converts a phosphosubstrate into a dephosphorylated product and free phosphate which could be measured as a surrogate for phosphatase activity. pNPP(para-nitrophenyl phosphate) was used as phosphatase substrate which can be hydrolyzed by phosphatase to give para-nitrophenol. Subsequently, para-nitrophenol converts into para-nitrophenolate (pNP) with addition of sodium hydroxide stop solution. pNP is an intense yellow compound and could be measured at 405 nm using a spectrophotometer. To begin with, purified recombinant PTP-MEG2, SHP2 and CDC25 (0.05 μg) in 50 μL buffer with 50 mM citrate (pH 6.0), 0.1 M NaCl, 1 mM EDTA, and 1 mM dithiothreitol (DTT) and test compounds were added to each well of a 96-well plate. Blank was prepared by omitting enzyme and substituting an equivalent volume of buffer. After preincubation for 15 min at room temperature, 50 μL of reaction buffer with 2 mM pNPP was added and incubated at 37°C for 30 min. Then, the reaction was stopped by adding 10 μL 0.2 M sodium hydroxide and chilled on ice quickly. In addition, the amount of pNP was measured by detecting the absorption at 405 nm against blank. Finally, IC50 values were determined by analyzing the data using ORIGINPRO 8 software.

[2] = target: T2, Human recombinant PTP-MEG2 (Homo sapiens, UniProt P43378); assay: PTP activity assay (pNPP), PTP-MEG2; format: biochemical; details: triplicate, mean ± S.E.M.
T2 construct: made in house; host or cells: E. coli
T2 sequence (P43378 1-593): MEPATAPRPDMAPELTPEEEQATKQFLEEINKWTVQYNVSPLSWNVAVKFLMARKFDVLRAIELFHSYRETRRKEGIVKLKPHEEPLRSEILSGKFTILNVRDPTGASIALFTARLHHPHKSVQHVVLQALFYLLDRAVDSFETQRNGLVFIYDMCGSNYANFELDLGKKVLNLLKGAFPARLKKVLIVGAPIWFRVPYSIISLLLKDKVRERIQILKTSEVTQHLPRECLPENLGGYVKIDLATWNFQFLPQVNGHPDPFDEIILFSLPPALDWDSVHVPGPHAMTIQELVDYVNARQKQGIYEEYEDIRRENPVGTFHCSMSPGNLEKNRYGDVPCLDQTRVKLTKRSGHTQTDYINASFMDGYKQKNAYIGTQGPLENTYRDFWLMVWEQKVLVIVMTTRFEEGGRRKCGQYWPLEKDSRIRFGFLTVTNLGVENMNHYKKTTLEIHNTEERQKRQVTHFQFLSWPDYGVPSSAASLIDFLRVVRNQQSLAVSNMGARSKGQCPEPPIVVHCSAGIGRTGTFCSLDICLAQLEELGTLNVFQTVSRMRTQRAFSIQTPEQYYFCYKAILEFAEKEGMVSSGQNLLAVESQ
Description: as §1

[3] = tested on: Human recombinant CDC25; assay: PTP activity assay (pNPP), CDC25; format: biochemical; details: triplicate
Description: as §1

[4] = tested on: diet-induced obese mice; details: ref [20]; cited from earlier work

IC50 [1] | IC50 [2] | IC50 [3] | Compound | effect on insulin signaling, insulin sensitivity and glucose homeostasis [4]
> 50 µM | 1.19 ± 0.08 µM | > 50 µM | CCOC(=O)c1cc(OCC2CCCCC2)c2c(c1)oc1cc(F)c(C(C)C)cc12 [Compound 10c, ethyl 1-(cyclohexylmethoxy)-7-fluoro-8-isopropyldibenzo[b, d]furan-3-carboxylate] | 
> 50 µM | 3.39 ± 0.34 µM | > 50 µM | CCOC(=O)c1cc(OCc2ccc(OC)cc2)c2c(c1)oc1cc(F)c(C(C)C)cc12 [Compound 10d, ethyl7-fluoro-8-isopropyl-1-((4-methoxybenzyl)oxy)dibenzo[b, d]furan-3-carboxylate] | 
> 50 µM | 5 ± 0.4 µM | > 50 µM | COC(=O)c1cc(O)c2c(c1)oc1cc(F)c(C(C)C)cc12 [Compound 9a, methyl 7-fluoro-1-hydroxy-8-isopropyldibenzo[b, d]furan-3-carboxylate] | 
> 50 µM | 2.41 ± 0.17 µM | > 50 µM | CCCCCCOc1cc(C(=O)OCC2CC2)cc2oc3cc(F)c(C(C)C)cc3c12 [Compound 11a, cyclopropylmethyl7-fluoro-1-(hexyloxy)-8-isopropyldibenzo[b, d]furan-3-carboxylate] | 
> 50 µM | 1.22 ± 0.11 µM | > 50 µM | CCCCCCOc1cc(C(=O)OCC)cc2oc3cc(F)c(C(C)C)cc3c12 [Compound 10b, ethyl 7-fluoro-1-(hexyloxy)-8-isopropyldibenzo[b, d]furan-3-carboxylate] | 
 |  |  | CCOC(=O)/C(=C/C#Cc1cc(C(C)C)c(F)cc1OC)CC(=O)O [compound7] | augment insulin signaling and enhance the insulin sensitivity and glucose homeostasis
> 50 µM | 5.35 ± 0.43 µM | > 50 µM | CC(C)c1cc2c(cc1F)oc1cc(C(=O)O)cc(OCC3CC3)c12 [Compound 11e, 1-(cyclopropylmethoxy)-7-fluoro-8-isopropyldibenzo[b, d]furan-3-carboxylic acid] | 
> 50 µM | 0.32 ± 0.02 µM | > 50 µM | CCOC(=O)c1cc(OCC2CC2)c2c(c1)oc1cc(F)c(C(C)C)cc12 [Compound 10a, ethyl 1-(cyclopropylmethoxy)-7-fluoro-8-isopropyldibenzo[b, d]furan-3-carboxylate] | 
> 50 µM | 1.06 ± 0.1 µM | > 50 µM | COc1ccc(COc2cc(C(=O)OCC3CC3)cc3oc4cc(F)c(C(C)C)cc4c23)cc1 [Compound 11b, cyclopropylmethyl7-fluoro-8-isopropyl-1-((4-methoxybenzyl)oxy)dibenzo[b, d]furan-3-carboxylate] | 

Compound | IC50 [1] | IC50 [2] | IC50 [3] | effect on insulin signaling, insulin sensitivity and glucose homeostasis [4]
CCOC(=O)c1cc(OC(C)=O)c2c(c1)oc1cc(F)c(C(C)C)cc12 [Compound 8, ethyl 1-acetoxy-7-fluoro-8-isopropyldibenzo[b, d]furan-3-carboxylate] | > 50 µM | 3.7 ± 0.22 µM | > 50 µM | 
CCCCCCOc1cc(C(=O)OCC2CCCCC2)cc2oc3cc(F)c(C(C)C)cc3c12 [Compound 11c, cyclohexylmethyl7-fluoro-1-(hexyloxy)-8-isopropyldibenzo[b, d]furan-3-carboxylate] | > 50 µM | 3.16 ± 0.32 µM | > 50 µM | 
COc1ccc(COc2cc(C(=O)OCC3CCCCC3)cc3oc4cc(F)c(C(C)C)cc4c23)cc1 [Compound 11d, cyclohexylmethyl7-fluoro-8-isopropyl-1-((4-methoxybenzyl)oxy)dibenzo[b, d]furan-3-carboxylate] | > 50 µM | 0.83 ± 0.04 µM | > 50 µM | 
